Experimental data from patent publication US20090087495A1, “Food for Improving Motor Function” (Nippon Meat Packers, Inc., priority 2005, published 2009).

System: male ddY mice
Assay: Stamina improvement: swimming until exhaustion in a running water pool
Format: in vivo
Details: material 10 mg/ml, oral 10 ml/kg once a day for seven days; 10 animals per group; relative value, Comparative Example 21 (control) = 100
Description: The test solution was given to mice to check for the influence on the improvement of stamina. Five-week-old male ddY mice (purchased from Japan SLC Co. Ltd.) were raised, letting them be free to take solid feed (CE-2, Japan Clare Co. Ltd., Tokyo) and water (10 mice per group). […] After one week of preparatory raising and swim training, they were allowed to freely take ordinary solid feed and water. […] On the day just before start of giving the test solution and on the 7th day after start of giving the test solution, the experimental animals were let to swim until exhaustion in the pool (velocity at center: 23.6 cm/sec.) to measure the swimming duration and to obtain the elongation of the swimming duration in seven days.

| Compound | Elongation of swimming duration (%), without chicken extract powder [%] |
| --- | --- |
| C[N+](C)(C)CC(O)CC(=O)[O-] (stereo not drawn) [Comparative Example 8, carnitine] | 110 |
| tocotrienol [Comparative Example 15] | 120 |
| C/C=C1/[C@H](O[C@@H]2O[C@H](CO)[C@@H](O)[C@H](O)[C@H]2O)OC=C(C(=O)OC)[C@H]1CC(=O)OCCc1ccc(O)c(O)c1 [Comparative Example 13, oleuropein] | 120 |
| O=C(O)CCCCC1CCSS1 (stereo not drawn) [Comparative Example 9, thioctic acid] | 110 |
| N=C(N)NCCC[C@H](N)C(=O)O [Comparative Example 2, arginine] | 110 |
| COC1=C(OC)C(=O)C(C/C=C(\C)CC/C=C(\C)CC/C=C(\C)CC/C=C(\C)CC/C=C(\C)CC/C=C(\C)CC/C=C(\C)CC/C=C(\C)CC/C=C(\C)CCC=C(C)C)=C(C)C1=O [Comparative Example 14, ubiquinone (CoQ10)] | 110 |
| antocyanine [Comparative Example 12] | 120 |
| Cn1c(=O)c2c(ncn2C)n(C)c1=O [Comparative Example 6, caffeine] | 110 |
| proanthocyanidin [Comparative Example 11] | 110 |
| CN(CC(=O)O)C(=N)N [Comparative Example 1, creatine] | 110 |
| O=C(O)CC(O)(CC(=O)O)C(=O)O [Comparative Example 7, citric acid] | 110 |
| heme iron [Comparative Example 10] | 110 |
